# From article PMC7918538 (Pharmaceuticals, 2021)
# Where “and” joins values, the source holds several entries; their conditions need not be identical. Identical values can stand only once. Like-named read-outs stand apart in the source and are kept apart here.
# How the values were obtained:
# [1] = biological target: T1, Recombinant M. tuberculosis MbtI (Mycobacterium tuberculosis, UniProt P9WFX1); assay: MbtI enzymatic inhibition assay (fluorimetric, salicylic acid formation); type: biochemical; conditions: for activity against MbtI (in words): discussion of Table 1
# T1 construct: made in house
# T1 sequence (P9WFX1 whole entry): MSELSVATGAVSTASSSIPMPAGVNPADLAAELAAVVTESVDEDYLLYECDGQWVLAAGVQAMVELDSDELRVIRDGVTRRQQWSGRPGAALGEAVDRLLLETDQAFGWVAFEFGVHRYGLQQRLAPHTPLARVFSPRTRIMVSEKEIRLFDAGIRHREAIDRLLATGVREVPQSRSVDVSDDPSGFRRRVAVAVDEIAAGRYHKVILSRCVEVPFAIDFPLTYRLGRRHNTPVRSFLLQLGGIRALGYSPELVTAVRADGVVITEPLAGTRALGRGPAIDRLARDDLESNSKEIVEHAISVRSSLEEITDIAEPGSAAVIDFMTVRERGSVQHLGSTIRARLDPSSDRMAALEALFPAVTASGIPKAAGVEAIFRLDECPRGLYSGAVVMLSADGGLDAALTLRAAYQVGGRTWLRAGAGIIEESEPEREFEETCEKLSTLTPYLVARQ
# Method: Recombinant M. tuberculosis MbtI was produced and purified as previously reported. Enzyme activity was determined at 37 °C, measuring the formation of salicylic acid by a fluorimetric assay, slightly modified from Vasan et al.. Briefly, the reactions were performed in a final volume of 400 μL of 50 mM Hepes pH 7.5, 5 mM MgCl2, containing 1-2 μM MbtI, by the addition of chorismic acid, and monitored using a Perkin-Elmer LS3 fluorimeter (Ex. λ = 305 nm, Em. λ = 420 nm). Inhibition assays were performed in the presence of the compound at 100 µM (stock solution 20 mM in DMSO) and 50 µM chorismic acid. Where possible, compounds were tested both as free acids and sodium salts, providing analogous results. […] To this end, the activity was measured at different compound concentrations, and values were calculated according to Equation (1), with Origin 8 software:(1) A[I] = A[0] × (1 −[I]/[I] + IC50) where A[I] is the activity at inhibitor concentration [I] and A[0] is the activity in the absence of the inhibitor.
# The Ki was determined at different substrate [S] and compound concentrations, using Equation (2):(2) v = Vmax[S]/[S] + Km (1 + [I]/Ki)
# [2] = biological target: T1, Recombinant M. tuberculosis MbtI; conditions: cited from earlier work; for %RA (% residual enzymatic activity at 100 µM): previous furan leads I and II shown in Table 1 for comparison
# [3] = tested on: eukaryotic cells; parameters: method as in PMID 32530281, PMID 30889995, PMID 29940465, PMID 29933627; conditions: previous leads; cited from earlier work
# [4] = tested on: M. bovis BCG; assay: microbe, parasite or virus in culture; type: cell-based
# [5] = tested on: M. bovis BCG; conditions: previous lead I given for comparison; cited from earlier work
# [6] = Series A R = m-CNPh, compound 100 µM, 50 µM chorismic acid, read-out: %RA (% residual enzymatic activity at 100 µM)
# [7] = Series A R = m-CNPh, only for compounds with %RA ≤ 25%, read-out: IC50
# [8] = compound 100 µM, rounded value, read-out: % residual enzymatic activity (%RA) at 100 µM
# [9] = Series B R = p-NO2Ph, compound 100 µM, 50 µM chorismic acid, read-out: %RA (% residual enzymatic activity at 100 µM)
# [10] = Series B R = p-NO2Ph, only for compounds with %RA ≤ 25%, read-out: IC50
# [11] = Table 2, furans IV–IX, compound 100 µM, 50 µM chorismic acid, read-out: % RA (% residual enzymatic activity at 100 µM)
# [12] = Table 2, furans IV–IX, only for compounds with %RA ≤ 25%, read-out: IC50
# [13] = rounded value, read-out: IC50 against MbtI
smiles,measurement,setting,value
"N#Cc1cccc(-c2ccc(C(=O)O)s2)c1 [1a, 5-(3-Cyanophenyl)thiophene-2-carboxylic acid]",remaining activity at 100 µM,[1]; [6],23.7 ± 5%
same,IC50,[1]; [7],35.5 ± 1.9 µM
same,remaining activity at 100 µM,[1]; [8],~23%
same,melting point,,207 °C
"O=C(O)c1ccc(-c2ccc([N+](=O)[O-])cc2)s1 [1b, 5-(4-Nitrophenyl)thiophene-2-carboxylic acid]",remaining activity at 100 µM,[1]; [9],22.5 ± 10.8%
same,IC50,[1]; [10],18.6 ± 1.7 µM
same,remaining activity at 100 µM,[1]; [8],~23%
same,melting point,,189 °C
"N#Cc1cccc(-c2cnc(C(=O)[O-])s2)c1.[Na+] [2a, Sodium 5-(3-cyanophenyl)thiazole-2-carboxylate]",remaining activity at 100 µM,[1]; [6],24.8 ± 1.8%
same,IC50,[1]; [7],41.9 ± 7.3 µM
same,activity against MbtI (in words),[1],weaker inhibitors
same,melting point,,> 300 °C (dec.)
"O=C([O-])c1ncc(-c2ccc([N+](=O)[O-])cc2)s1.[Na+] [2b, Sodium 5-(4-nitrophenyl)thiazole-2-carboxylate]",remaining activity at 100 µM,[1]; [9],32.8 ± 2.3%
same,activity against MbtI (in words),[1],weaker inhibitors
same,melting point,,> 300 °C (dec.)
"N#Cc1cccc(-c2cnc(C(=O)[O-])o2)c1.[Na+] [3a, Sodium 5-(3-cyanophenyl)oxazole-2-carboxylate]",remaining activity at 100 µM,[1]; [6],38 ± 7.6%
same,activity against MbtI (in words),[1],negligible activity
same,melting point,,> 300 °C (dec.)
"O=C([O-])c1ncc(-c2ccc([N+](=O)[O-])cc2)o1.[Na+] [3b, Sodium 5-(4-nitrophenyl)oxazole-2-carboxylate]",remaining activity at 100 µM,[1]; [9],23 ± 7.8%
same,IC50,[1]; [10],21.1 ± 2.7 µM
same,activity against MbtI (in words),[1],modest activity
same,melting point,,> 300 °C (dec.)
"N#Cc1cccc(-c2cnc(C(=O)O)[nH]2)c1 [4a, 5-(3-Cyanophenyl)-1H-imidazole-2-carboxylic acid]",remaining activity at 100 µM,[1]; [6],21.2 ± 1%
same,IC50,[1]; [7],39.3 ± 3 µM
same,activity against MbtI (in words),[1],weak activity
same,melting point,,165 °C
"O=C(O)c1ncc(-c2ccc([N+](=O)[O-])cc2)[nH]1 [4b, 5-(4-Nitrophenyl)-1H-imidazole-2-carboxylic acid]",remaining activity at 100 µM,[1]; [9],18.2 ± 4.9%
same,IC50,[1]; [10],27.5 ± 2.3 µM
same,activity against MbtI (in words),[1],weak activity
same,melting point,,137 °C
N#Cc1cc(C(F)(F)F)ccc1-c1ccc(C(=O)O)o1 [5-(2-cyano-4-(trifluoromethyl)phenyl)furan-2-carboxylic acid],IC50,"[2]; previously published disubstituted furans, read-out: IC50 against MbtI",~18 µM
"N#Cc1cccc(-c2nnc(C(=O)O)o2)c1 [5a, 5-(3-Cyanophenyl)-1,3,4-oxadiazole-2-carboxylic acid]",remaining activity at 100 µM,[1]; [6],75 ± 9.8%
same,melting point,,222 °C (dec.)
"O=C(O)c1nnc(-c2ccc([N+](=O)[O-])cc2)o1 [5b, 5-(4-Nitrophenyl)-1,3,4-oxadiazole-2-carboxylic acid]",remaining activity at 100 µM,[1]; [9],59 ± 4.3%
same,melting point,,220 °C (dec.)
"N#Cc1cccc(-n2cc(C(=O)O)nn2)c1 [6a, 1-(3-Cyanophenyl)-1H-1,2,3-triazole-4-carboxylic acid]",remaining activity at 100 µM,[1]; [6],67.9 ± 6.6%
"O=C(O)c1cn(-c2ccc([N+](=O)[O-])cc2)nn1 [6b, 1-(4-Nitrophenyl)-1H-1,2,3-triazole-4-carboxylic acid]",remaining activity at 100 µM,[1]; [9],32.7 ± 7.8%
same,melting point,,175 °C
O=C(O)c1ccc(-c2ccccc2)o1 [III],MbtI activity (in words),[2]; removal of the substituent from the phenyl ring,complete loss of activity
O=C(O)c1ccc(-c2ccc([N+](=O)[O-])cc2)o1 [II],%RA (% residual enzymatic activity at 100 µM),[2],18.2 ± 5.1%
same,cytotoxicity towards eukaryotic cells (in words),[3],negligible cytotoxicity
"N#Cc1cc(-c2ccc(C(=O)O)o2)cc(C(F)(F)F)c1 [IV, 5-(3-Cyano-5-(trifluoromethyl)phenyl)furan-2-carboxylic acid]",MIC99,"[4]; M. bovis BCG, iron-limiting conditions (chelated Sauton's medium), REMA",125 µM
same,MIC99,"[4]; Mycobacterium tuberculosis variant bovis BCG, BCG",125 µM
same,remaining activity at 100 µM,[1]; [11],0.7 ± 2.7%
same,IC50,[1]; [12],15.5 ± 3.1 µM
same,Ki,[1]; kinetic analysis at different chorismic acid and compound concentrations,9.2 µM and ~9 µM
same,remaining activity at 100 µM,[1]; read-out: % residual enzymatic activity (%RA) at 100 µM,~1%
same,IC50,[1]; [13],~15 µM
same,nature of inhibition against MbtI,[1]; steady-state kinetics towards chorismic acid,competitive inhibitor
"N#Cc1cc(O)cc(-c2ccc(C(=O)O)o2)c1 [IX, 5-(3-cyano-5-hydroxyphenyl)furan-2-carboxylic acid]",remaining activity at 100 µM,[1]; [11],15.3 ± 2.6%
same,IC50,[1]; [12],33.5 ± 3.4 µM
same,IC50,[1]; [13],~33 µM
N#Cc1cccc(-c2ccc(C(=O)O)o2)c1 [I],MIC99,[5],250 µM
same,%RA (% residual enzymatic activity at 100 µM),[2],3.1 ± 1.0%
same,cytotoxicity towards eukaryotic cells (in words),[3],negligible cytotoxicity
"O=C(O)c1ccc(-c2cc(C(F)(F)F)cc(C(F)(F)F)c2)o1 [V, 5-(3,5-Bis(trifluoromethyl)phenyl)furan-2-carboxylic acid]",remaining activity at 100 µM,[1]; [11],8.9 ± 1.6%
same,IC50,[1]; [12],18.8 ± 6.8 µM
same,IC50,[1]; [13],~19 µM
"N#Cc1cc(F)cc(-c2ccc(C(=O)O)o2)c1 [VI, 5-(3-cyano-5-fluorophenyl)furan-2-carboxylic acid]",remaining activity at 100 µM,[1]; [11],8.7 ± 1.4%
same,IC50,[1]; [12],17.3 ± 3.1 µM
"COc1cc(C#N)cc(-c2ccc(C(=O)O)o2)c1 [VII, 5-(3-Cyano-5-methoxyphenyl)furan-2-carboxylic acid]",remaining activity at 100 µM,[1]; [11],10.5 ± 3.9%
same,IC50,[1]; [12],14.5 ± 2.1 µM
same,activity against MbtI (in words),[1],comparable IC50 with respect to IV
"Cc1cc(C#N)cc(-c2ccc(C(=O)O)o2)c1 [VIII, 5-(3-cyano-5-methylphenyl)furan-2-carboxylic acid]",remaining activity at 100 µM,[1]; [11],16.7 ± 3.8%
same,IC50,[1]; [12],29.1 ± 1.8 µM
same,IC50,[1]; [13],~29 µM
